# Paper PMC8345109, “Optimization of New Catalytic Topoisomerase II Inhibitors as an Anti-Cancer Therapy” (Cancers, 2021)
# Assays:
# K562 leukemia cells = test: K562 cell proliferation (MTS assay); conditions: K562, up to 100 uM
# Protocol: (§4) (A) K562 cells were treated with 0, 0.5, 1, 5, 10, 15, and 20 uM of T60 or 0, 0.5, 1, 5, 10, 15, 20, 50, and 100 uM of T637 and T638 for 24, 48, or 72 h. […] (B) NCI-H446 small cell lung cancer line and Hela cervical cancer line were treated with 0, 0.5, 1, 5, 10, 15, and 20 uM of T60 or 0, 0.5, 1, 5, 10, 15, 20, 50, and 100 uM of T637 and T638 for five days. Cell growth rates were measured by using Incucyte^TM. (C) K562 cells were treated with 0, 5, 10, 15, and 20 uM of T60, T637, or T638 for 48 h. Cytotoxicity was evaluated by measuring the LDH levels from the culture media. (D) K562 cells were treated with the vehicle or 10–20 µM of etoposide, T60, T637, or T638 for 4 h. Immunoblotting measured p-H2AXγ levels in cells with vinculin as a loading control.
# human TOP2A(431-1193) [1] = biological target: T1, human TOP2A(431-1193) (Homo sapiens, UniProt P11388); test: Microscale thermophoresis (MST) binding assay; conditions: 5 nM NT647-labelled TOP2A(431-1193), 0.015-500 µM compound; read-out: Kd, direct TOP2-compound binding (MST)
# T1 construct: 6xHis (N); made in house; host or cells: E. coli BL21 (DE3)
# T1 sequence (P11388 431-1193): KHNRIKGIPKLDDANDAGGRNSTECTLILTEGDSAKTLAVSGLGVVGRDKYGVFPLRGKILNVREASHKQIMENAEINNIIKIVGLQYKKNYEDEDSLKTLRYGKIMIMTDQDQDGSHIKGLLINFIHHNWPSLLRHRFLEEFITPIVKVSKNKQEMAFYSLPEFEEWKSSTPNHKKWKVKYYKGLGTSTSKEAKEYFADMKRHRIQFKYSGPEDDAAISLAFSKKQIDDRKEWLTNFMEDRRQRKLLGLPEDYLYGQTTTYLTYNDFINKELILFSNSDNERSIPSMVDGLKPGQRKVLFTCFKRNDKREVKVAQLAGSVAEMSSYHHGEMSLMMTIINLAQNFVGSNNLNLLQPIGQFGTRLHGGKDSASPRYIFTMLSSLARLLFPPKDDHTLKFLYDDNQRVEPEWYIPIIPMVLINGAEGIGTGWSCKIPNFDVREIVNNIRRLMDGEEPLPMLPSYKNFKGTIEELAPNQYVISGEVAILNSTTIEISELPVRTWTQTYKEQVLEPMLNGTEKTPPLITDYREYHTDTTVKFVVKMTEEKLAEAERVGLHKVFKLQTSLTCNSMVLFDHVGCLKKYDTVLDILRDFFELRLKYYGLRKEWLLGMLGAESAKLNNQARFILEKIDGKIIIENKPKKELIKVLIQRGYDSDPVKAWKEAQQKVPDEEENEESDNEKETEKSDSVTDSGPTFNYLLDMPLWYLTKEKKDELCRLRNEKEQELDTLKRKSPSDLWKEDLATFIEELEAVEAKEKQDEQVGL
# Protocol: It was transformed into BL21 (DE3) E. coli cells and induced by 0.5 mM IPTG for 16 h at 16 °C. Cells were lysed by sonication and protein purification was by chromatography with the Ni-NTA beads (Invitrogen), followed by a size exclusion chromatography (Superdex 200). […] A serial dilution of the inhibitors was prepared with 100% DMSO and subsequently mixed with the labeled fluorescent protein in the assay buffer (20 mM Tris pH 8.0, 100 mM NaCl, 0.1% NP40, 0.2 mM TCEP, and 0.1 mM PMSF) at the final concentrations of 0.015–500 uM. The final concentration of the protein was 5 nM. The labeled protein and small molecules mix were allowed to incubate in the dark at room temperature for 5 min before filling the capillaries. MST assays were performed with 5–20% LED/excitation power and medium MST power using premium capillaries for Monolith NT.115. The data for the estimation of Kd were analyzed using MO Affinity Analysis software from Nanotemper.
# (§1) (A) Ethidium bromide displacement assays were performed by mixing 100 µg/mL salmon sperm DNA with −/+2 µg/mL ethidium bromide and the indicated compounds. Reactions were subjected to fluorescence emission of 590 nm and excitation of 535 nm. Obtained signals were detected by using the Multimode Microplate Reader (Infinite F500). […] Reactions were subjected to 5–20% LED/excitation power and medium MST power using premium capillaries. Obtained signals were detected by using the Monolith NT.115 system. The change in thermophoresis is expressed as the change in the normalized fluorescence (ΔFnorm). MST assays were repeated with two control compounds, enzalutamide (Enza) and merbarone.
# full-length TOP2A [2] = biological target: T2, full-length TOP2A (Homo sapiens, UniProt P11388); test: EMSA, full-length TOP2A with 5ZRF DNA oligo; type: binding; design: EMSA was performed by purified full-length TOP2A or TOP2B proteins; conditions: 200 µM compound, 300 nM protein, 100 nM oligo
# T2 sequence (P11388 whole entry): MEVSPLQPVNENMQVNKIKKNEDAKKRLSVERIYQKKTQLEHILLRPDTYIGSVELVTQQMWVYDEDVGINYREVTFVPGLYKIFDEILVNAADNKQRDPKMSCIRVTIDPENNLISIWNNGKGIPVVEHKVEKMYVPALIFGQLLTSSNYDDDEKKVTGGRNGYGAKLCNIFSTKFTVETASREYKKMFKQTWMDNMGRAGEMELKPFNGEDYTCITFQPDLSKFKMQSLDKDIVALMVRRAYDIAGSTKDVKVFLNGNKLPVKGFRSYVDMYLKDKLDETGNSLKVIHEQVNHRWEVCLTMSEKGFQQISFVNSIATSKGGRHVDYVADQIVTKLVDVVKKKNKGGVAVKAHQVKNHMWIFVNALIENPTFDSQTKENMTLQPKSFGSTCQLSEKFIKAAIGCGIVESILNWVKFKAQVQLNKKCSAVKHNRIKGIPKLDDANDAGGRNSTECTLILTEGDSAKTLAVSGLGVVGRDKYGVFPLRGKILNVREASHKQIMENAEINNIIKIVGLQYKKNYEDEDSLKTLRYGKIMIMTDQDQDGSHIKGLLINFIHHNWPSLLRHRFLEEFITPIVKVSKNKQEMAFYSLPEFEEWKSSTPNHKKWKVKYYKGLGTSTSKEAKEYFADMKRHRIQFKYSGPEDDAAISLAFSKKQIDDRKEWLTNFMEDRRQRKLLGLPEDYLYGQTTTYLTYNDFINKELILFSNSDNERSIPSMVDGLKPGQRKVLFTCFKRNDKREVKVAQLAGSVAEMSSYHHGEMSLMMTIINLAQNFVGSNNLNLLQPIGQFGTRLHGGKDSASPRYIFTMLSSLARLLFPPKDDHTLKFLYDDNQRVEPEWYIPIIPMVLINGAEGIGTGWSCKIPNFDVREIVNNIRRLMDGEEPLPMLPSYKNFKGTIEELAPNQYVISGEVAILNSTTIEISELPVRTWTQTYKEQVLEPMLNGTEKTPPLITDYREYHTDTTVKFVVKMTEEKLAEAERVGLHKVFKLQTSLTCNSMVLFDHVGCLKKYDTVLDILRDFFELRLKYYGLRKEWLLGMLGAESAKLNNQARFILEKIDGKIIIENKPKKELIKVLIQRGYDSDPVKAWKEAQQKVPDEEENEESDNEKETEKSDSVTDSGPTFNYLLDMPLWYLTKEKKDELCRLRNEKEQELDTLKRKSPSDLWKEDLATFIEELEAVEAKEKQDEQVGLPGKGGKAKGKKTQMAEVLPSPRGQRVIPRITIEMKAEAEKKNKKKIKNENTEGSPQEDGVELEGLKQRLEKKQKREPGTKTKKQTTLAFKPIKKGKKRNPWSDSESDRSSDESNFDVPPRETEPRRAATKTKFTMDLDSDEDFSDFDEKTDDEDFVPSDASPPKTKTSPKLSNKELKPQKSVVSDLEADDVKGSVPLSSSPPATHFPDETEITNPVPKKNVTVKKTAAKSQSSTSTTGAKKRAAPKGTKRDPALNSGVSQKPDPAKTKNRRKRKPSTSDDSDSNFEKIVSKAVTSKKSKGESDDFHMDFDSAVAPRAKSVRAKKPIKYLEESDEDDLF
# Protocol: (§2) (A) EMSA was performed by purified full-length TOP2A or TOP2B proteins at a contraction of 300 nM with IRDay700 labeled 5ZRF DNA oligo at a concentration of 100 nM in the presence of −/+200 µM of ICRF193, T60, T637, and T638. […] Reactions were subjected to fluorescence […], which were detected by using the Multimode Microplate Reader (Infinite F500). (D) DNA cleavage assays were performed using full-length human TOP2A and TOP2B incubated with the supercoiled pHOT plasmid in the presence of 200 µM of etoposide plus 1, 100, or 200 µM of ICRF193, T60, T637, and T638. Reactions were separated on a DNA gel with ethidium bromide. All experiments were repeated three times, and one representative image was shown. Note: N, nicked DNA; L, linear DNA; and SC, supercoiled DNA.
# in vitro = conditions: mouse, liver microsomes, pH 7.4
# Protocol: The reaction was initiated by adding NADPH, followed by incubation at 37 °C. […] The samples were then vortexed and centrifuged at 16,000 rpm for 10 min at 4 °C. The supernatants were collected and analyzed by LC/MS/MS to determine the remaining percentage and the half-life (t1/2) by integrating compound peaks and fitting the resulting AUC values and time points to a one-phase decay equation.
# full-length TOP2A [3] = biological target: T2, full-length TOP2A; test: DNA cleavage assay, TOP2A; type: biochemical; design: DNA cleavage assays were performed using full-length human TOP2A and TOP2B; conditions: 200 µM etoposide plus 1, 100 or 200 µM compound, pHOT plasmid
# Protocol: as §2
# K562 cells [4] = test: Immunoblotting of p-H2AXγ (DNA damage); conditions: K562, 10-20 µM, 4 h
# Protocol: as §4
# human TOP2A(431-1193) [5] = biological target: T1, human TOP2A(431-1193); test: Fluorescence polarization (FP) assay of TOP2A-DNA interaction; type: binding; conditions: 500 nM protein, 0.01-200 µM compound
# Protocol: Fluorescent polarization assay was performed in Corning® Low Volume 384-well Black Flat Bottom microplate. […] Triplicate reactions were transferred onto the microplate and incubated at room temperature for 20 min. Fluorescence polarization (FP) measurements were taken by Tecan Infinite F500 with the excitation wavelength of 485 nm and emission wavelength of 535 nm.
# as §2
# salmon sperm DNA = test: Ethidium bromide displacement assay; type: binding; conditions: 100 µg/mL salmon sperm DNA, 2 µg/mL ethidium bromide
# Protocol: as §1
# TOP2A [6] = biological target: T3, TOP2A (Homo sapiens, UniProt P11388); test: Supercoiled plasmid DNA relaxation assay, TOP2A; type: biochemical; conditions: 0.01-200 uM, three biological repeats
# T3 sequence (P11388 whole entry): as above
# Protocol: (§3) Figure 2 T637 and T638 are TOP2A inhibitors. (A) K-DNA decatenation assays and (B) supercoiled plasmid DNA relaxation assays are used to measure TOP2A enzyme activity in the presence of 0.01–200 uM T637 or T638. Three biological repeats were performed with each concentration of the compounds, and the densitometry of the D-DNA bands from (A) and the SC bands from (B) was used to establish an inhibition curve for IC50 calculation.
# TOP2B = TOP2B (Homo sapiens, UniProt Q02880); test: Supercoiled plasmid DNA relaxation assay, TOP2B; type: biochemical; conditions: 0.01-200 uM, three biological repeats
# TOP2B, sequence (Q02880 whole entry): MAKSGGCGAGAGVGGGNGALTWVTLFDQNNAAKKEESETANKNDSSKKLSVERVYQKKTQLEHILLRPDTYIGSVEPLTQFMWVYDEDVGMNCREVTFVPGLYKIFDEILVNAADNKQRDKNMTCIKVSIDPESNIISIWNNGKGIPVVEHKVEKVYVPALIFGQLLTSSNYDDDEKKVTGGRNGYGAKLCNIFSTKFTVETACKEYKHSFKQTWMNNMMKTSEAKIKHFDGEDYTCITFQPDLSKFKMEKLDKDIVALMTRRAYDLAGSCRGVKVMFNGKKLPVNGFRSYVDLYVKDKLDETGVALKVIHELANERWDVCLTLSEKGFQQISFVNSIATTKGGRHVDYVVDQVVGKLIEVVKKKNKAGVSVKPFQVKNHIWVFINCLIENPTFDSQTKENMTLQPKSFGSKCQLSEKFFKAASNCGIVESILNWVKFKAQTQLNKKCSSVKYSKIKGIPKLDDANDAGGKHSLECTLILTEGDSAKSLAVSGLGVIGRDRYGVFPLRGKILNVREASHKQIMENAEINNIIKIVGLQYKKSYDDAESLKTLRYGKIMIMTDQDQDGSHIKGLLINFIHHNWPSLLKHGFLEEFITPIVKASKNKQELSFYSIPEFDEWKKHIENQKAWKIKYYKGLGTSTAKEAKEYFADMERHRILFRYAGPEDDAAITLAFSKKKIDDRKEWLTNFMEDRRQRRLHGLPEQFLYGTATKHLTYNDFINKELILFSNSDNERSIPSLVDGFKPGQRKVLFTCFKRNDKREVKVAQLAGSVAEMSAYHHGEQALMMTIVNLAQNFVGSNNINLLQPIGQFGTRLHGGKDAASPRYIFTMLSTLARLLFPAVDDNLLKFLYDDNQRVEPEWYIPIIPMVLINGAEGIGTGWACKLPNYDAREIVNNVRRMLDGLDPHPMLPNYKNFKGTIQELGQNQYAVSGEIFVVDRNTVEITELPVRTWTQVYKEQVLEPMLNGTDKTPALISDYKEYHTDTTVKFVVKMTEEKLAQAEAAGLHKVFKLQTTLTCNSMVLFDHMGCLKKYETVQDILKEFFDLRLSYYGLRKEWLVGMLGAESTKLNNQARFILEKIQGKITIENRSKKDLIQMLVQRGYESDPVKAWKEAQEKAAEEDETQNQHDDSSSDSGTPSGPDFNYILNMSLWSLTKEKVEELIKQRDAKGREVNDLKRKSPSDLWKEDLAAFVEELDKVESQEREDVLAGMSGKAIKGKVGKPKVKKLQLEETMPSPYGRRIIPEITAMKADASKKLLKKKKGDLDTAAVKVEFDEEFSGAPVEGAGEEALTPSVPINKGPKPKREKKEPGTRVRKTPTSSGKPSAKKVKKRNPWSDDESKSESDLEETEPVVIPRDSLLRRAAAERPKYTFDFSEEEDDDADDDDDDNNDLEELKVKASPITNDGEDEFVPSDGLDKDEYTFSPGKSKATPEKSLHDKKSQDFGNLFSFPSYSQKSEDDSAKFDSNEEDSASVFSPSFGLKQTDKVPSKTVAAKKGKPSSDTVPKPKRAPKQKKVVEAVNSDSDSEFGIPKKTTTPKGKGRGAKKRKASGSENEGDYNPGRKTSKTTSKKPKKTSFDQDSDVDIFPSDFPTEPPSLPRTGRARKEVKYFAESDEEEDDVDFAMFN
# Protocol: as §3, with “Figure 3” for “Figure 2”, “are TOP2B” for “are TOP2A”, “measure TOP2B” for “measure TOP2A enzyme”
# K562 cells [7] = test: Cytotoxicity by LDH release; conditions: K562, 0-20 uM, 48 h
# Protocol: as §4
# [8] = Crystal formation (precipitation) in cell cultures; type: physicochemical; conditions: up to 100 uM
# Protocol: Both T637 and T638 have improved solubility in aqueous solution and culture media compared to T60 (Figure 1). […] When cells are growing in the culture media and treated with T60 at concentrations ≥50 uM for two days, T60 will form crystals, likely due to the altered pH values by the cells that induce T60 precipitation. […] These improvements in solubility allow higher doses of compounds to be used to treat cancer cells to reach maximum tumor suppression.
# TOP2A [9] = biological target: T3, TOP2A; test: K-DNA decatenation assay, TOP2A; type: biochemical; conditions: 0.01-200 uM, three biological repeats
# Protocol: as §3
smiles,measurement,setting,value
Nc1cc(Nc2ccccc2)ccc1NC(=O)c1ccc[nH]c1=S [T638],Maximum cell proliferation inhibition,K562 leukemia cells; 48 h,100%
same,Maximum cell proliferation inhibition,K562 leukemia cells; 72 h,100%
same,Kd,human TOP2A(431-1193) [1],~87 µM
same,Block of TOP2A-DNA oligo complex formation (EMSA),full-length TOP2A [2],block
same,half-life at 1 uM,in vitro,> 16.7 h
same,microsomal CLint at 1 uM,in vitro,2 µL/min/mg
same,"Prevention of etoposide-induced DNA cleavage, TOP2A",full-length TOP2A [3],did prevent etoposide-induced DNA cleavage
same,Intracellular DNA damage (phospho-H2AXγ protein levels),K562 cells [4],do not cause intracellular DNA damage
same,Effect on TOP2A-DNA interaction (FP),human TOP2A(431-1193) [5],reduced the TOP2A–DNA interaction in a dose-dependent manner
same,Fluorescence induced by the ethidium bromide/DNA complex reduced by increasing doses (DNA intercalation),salmon sperm DNA,not
same,IC50,TOP2A [6],2.1 µM
same,IC50,TOP2B,7.5 µM
same,"Cytotoxicity (LDH release), in words",K562 cells [7],not observed
same,"Crystal formation in cell cultures, in words",[8],no crystal formation
same,IC50,TOP2A [9],~0.7 µM
